Tested on: adult ACC neurons
Test: LTP induced by theta-burst stimulation (TBS) in ACC slices
Format: cell-based, mouse
Conditions: 0.3 μM
Description: Coronal brain slices ([…]) from 6-8-week-old C57BL/6 mice, containing ACC or hippocampus, were prepared using standard methods (Wei et al., 2001). Slices were transferred to a submerged recovery chamber containing oxygenated (95% O2 and 5% CO2) artificial cerebrospinal fluid (ACSF) (in mM: 124 NaCl, 4.4 KCl, 2 CaCl2, 1 MgSO4, 25 NaHCO3, 1 NaH2PO4, 10 glucose) at room temperature for at least 1 h.
Experiments were performed in a recording chamber on the stage of an Axioskop 2FS microscope with infrared DIC optics for visualizing whole-cell patch clamp recordings. EPSCs were recorded from layer II-III neurons using an Axon 200B amplifier (Axon Instruments, CA) and stimulations were delivered using a bipolar tungsten stimulating electrode placed in layer V of the ACC. In hippocampal slices, EPSCs were evoked by stimulating the Schaffer collateral-commissural pathway. EPSCs were induced by repetitive stimulations at 0.02 Hz and neurons were voltage clamped at −70 mV. The recording pipettes (3-5 MΩ) were filled with solution containing (mM) 145 K-gluconate, 5 NaCl, 1 MgCl2, 0.2 EGTA, 10 HEPES, 2 Mg-ATP, and 0.1 Na3-GTP (adjusted to pH 7.2 with KOH). After obtaining stable EPSCs for 10 min, three kinds of LTP induction paradigms were used within 12 min after establishing the whole-cell configuration to prevent wash out effect on LTP induction (Tsvetkov et al., 2002). The first protocol involved paired presynaptic 80 pulses at 2 Hz with postsynaptic depolarization at +30 mV (referred to as pairing training). The second involved paired 3 presynaptic stimuli that caused 3 EPSPs (10 ms ahead) with 3 postsynaptic APs at 30 Hz, paired 15 times every 5 s (named as EPSPs-APs protocol). The third involved theta-burst stimulation (5 trains of burst with 4 pulses at 100 Hz, at 200 ms interval; repeated 4 times at intervals of 10 s; named as TBS). The NMDAR-mediated component of EPSCs was pharmacologically isolated in Mg^2+-free ACSF containing: CNQX (20 μM), glycine (1 μM) and picrotoxin (100 μM). The patch electrodes contained (in mM) 102 cesium gluconate, 5 TEA-chloride, 3.7 NaCl, 11 BAPTA, 0.2 EGTA, 20 HEPES, 2 MgATP, 0.3 NaGTP, and 5 QX-314 chloride (adjusted to pH 7.2 with CsOH). Neurons were voltage clamped at −60 mV and NMDARs-mediated EPSCs were evoked at 0.05 Hz. Picrotoxin (100 μM) was always present to block GABAA receptor-mediated inhibitory synaptic currents. The access resistance was 15-30 MΩ and was monitored throughout the experiment. Data were discarded if access resistance changed by more than 15% during an experiment. Results are expressed as means±SEM. Statistical comparisons were performed using the Student t-test. […]

C[C@@H](CN1CCC(Cc2ccccc2)CC1)[C@@H](O)c1ccc(O)cc1 [Ro25-6981] was tested, and the “LTP after TBS, % of baseline” value was 105.5±8.3% and the “effect on LTP induced by TBS” value (FIG. 4E) was “blocked”.

Source: patent publication US20070161592A1, “Method of treating fear” (priority 2005, published 2007)
